Data from US7884117B2, “Carbonylamino pyrrolopyrazoles, potent kinase inhibitors” (Pfizer Inc., priority 2005, dated 2011).

Molecular target: T1, PAK4 Kinase domain (PAK4 KD) (Homo sapiens, UniProt O96013)
T1 construct: Cloning, expression, and purification of recombinant PAK4 Kinase domain (PAK4 KD); His tag (pET28a(+)/pET24a(+), Ni-NTA purification) (N, cleaved yes); GST (pGST4.5, glutathione column) (N, cleaved yes); made in house; host or cells: E. coli BL21(DE3)
Test: PAK4 kinase domain enzymatic assay (PK/LDH-coupled, Ki)
Assay type: biochemical
Details: for Ki: PAK4 Kinase Domain

T1 sequence (O96013 321-572 limits assumed): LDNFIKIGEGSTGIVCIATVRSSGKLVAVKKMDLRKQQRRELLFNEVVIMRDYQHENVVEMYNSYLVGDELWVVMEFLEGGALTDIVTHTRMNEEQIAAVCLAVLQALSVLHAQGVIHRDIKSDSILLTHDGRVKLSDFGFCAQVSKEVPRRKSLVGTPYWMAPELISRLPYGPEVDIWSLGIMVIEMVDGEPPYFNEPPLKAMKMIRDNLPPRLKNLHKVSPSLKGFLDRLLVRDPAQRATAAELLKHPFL

SMILES | Ki | inhibition at 1 µM
COc1cc(C(=O)Nc2n[nH]c3c2CN(C(=O)N[C@H](CN(C)C)c2ccccc2)C3(C)C)nc(OC)n1 [Example 106, (S)-3-(2,4-dimethoxypyrimidine-6-carboxamido)-N-(2-(dimethylamino)-1-phenylethyl)-6,6-dimethylpyrrolo[3,4-c]pyrazole-5(1H,4H,6H)-carboxamide] | 412 nM | –
COc1ccc(CC(=O)Nc2n[nH]c3c2CN(C(=O)N[C@@H]2C[C@H]2c2ccccc2)C3(C)C)cc1 (relative stereo) [Example 101, 3-{[(4-methoxyphenyl)acetyl]amino}-6,6-dimethyl-N-[trans-2-phenylcyclopropyl]-4,6-dihydropyrrolo[3,4-c]pyrazole-5(1H)-carboxamide] | 113 nM | –
CC1(C)c2[nH]nc(NC(=O)Cc3ccc(F)cc3)c2CN1C(=O)N[C@@H]1C[C@H]1c1ccccc1 (relative stereo) [Example 70, 3-{[(4-fluorophenyl)acetyl]amino}-6,6-dimethyl-N-[trans-2-phenylcyclopropyl]-4,6-dihydropyrrolo[3,4-c]pyrazole-5(1H)-carboxamide] | 223 nM | –
COCC(=O)Nc1n[nH]c2c1CN(C(=O)O[C@H](CN(C)C)c1ccccc1)C2(C)C [Example 14, (1S)-2-(dimethylamino)-1-phenylethyl 3-[(methoxyacetyl)amino]-6,6-dimethyl-4,6-dihydropyrrolo[3,4-c]pyrazole-5(1H)-carboxylate] | 356 nM | –
CN(C)CC(CC(=O)N1Cc2c(NC(=O)c3ccc(F)cc3)n[nH]c2C1(C)C)c1ccccc1 (stereo not shown) [Example 66, N-{5-[4-(dimethylamino)-3-phenylbutanoyl]-6,6-dimethyl-1,4,5,6-tetrahydropyrrolo[3,4-c]pyrazol-3-yl}-4-fluorobenzamide] | 556 nM | –
C[C@@H](CN(C)C)OC(=O)N1Cc2c(NC(=O)c3ccc(F)cc3F)n[nH]c2C1(C)C [Example 37, (1S)-2-(dimethylamino)-1-methylethyl 3-[(2,4-difluorobenzoyl)amino]-6,6-dimethyl-4,6-dihydropyrrolo[3,4-c]pyrazole-5(1H)-carboxylate] | 564 nM | –
CN(C)C[C@@H](NC(=O)N1Cc2c(NC(=O)c3cnccn3)n[nH]c2C1(C)C)c1ccccc1 [Example 111, (S)-N-(2-(dimethylamino)-1-phenylethyl)-6,6-dimethyl-3-(pyrazine-2-carboxamido)pyrrolo[3,4-c]pyrazole-5 (1H,4H,6H)-carboxamide] | – | 42%
CN(C)CC(CC(=O)N1Cc2c(NC(=O)c3ccccc3)n[nH]c2C1(C)C)c1ccc(Cl)cc1 (stereo not shown) [Example 67, N-{5-[3-(4-chlorophenyl)-4-(dimethylamino)butanoyl]-6,6-dimethyl-1,4,5,6-tetrahydropyrrolo[3,4-c]pyrazol-3-yl}benzamide] | 193 nM | –
CN(C)C[C@@H](OC(=O)N1Cc2c(NC(=O)c3ccccc3F)n[nH]c2C1(C)C)C1CCCCC1 [Example 33, (1S)-1-cyclohexyl-2-(dimethylamino)ethyl 3-[(2-fluorobenzoyl)amino]-6,6-dimethyl-4,6-dihydropyrrolo[3,4-c]pyrazole-5(1H)-carboxylate] | 220 nM | –
CCc1ccc(C(=O)Nc2n[nH]c3c2CN(C(=O)NC2CC2c2ccccc2)C3(C)C)cc1 (stereo not drawn) [Example 114, 3-(4-ethylbenzamido)-6,6-dimethyl-N-[trans-(2-phenylcyclopropyl)]pyrrolo[3,4-c]pyrazole-5(1H,4H,6H)-carboxamide] | – | 70%
CCc1cc(C(=O)Nc2n[nH]c3c2CN(C(=O)N[C@H](CN(C)C)c2ccccc2)C3(C)C)no1 [Example 105, (S)-N-(2-(dimethylamino)-1-phenyl)-3-(5-ethylisoxazole-3-carboxamido)-6,6-dimethylpyrrolo [3,4-c]pyrazole-5(1H,4H,6H)-carboxamide] | 121 nM | –
CN(C)[C@H](COC(=O)N1Cc2c(NC(=O)c3ccc(F)cc3)n[nH]c2C1(C)C)c1ccccc1 [Example 42, (S)-2-(dimethylamino)-2-phenylethyl 3-[(4-fluorobenzoyl)amino]-6,6-dimethyl-4,6-dihydropyrrolo[3,4-c]pyrazole-5(1H)-carboxylate] | 955 nM | –
CN(C)C[C@H](Cc1ccccc1)OC(=O)N1Cc2c(NC(=O)c3ccc(F)cc3)n[nH]c2C1(C)C [Example 76, (1S)-1-benzyl-2-(dimethylamino)ethyl 3-[(4-fluorobenzoyl)amino]-6,6-dimethyl-4,6-dihydropyrrolo[3,4-c]pyrazole-5(1H)-carboxylate] | 468 nM | –
COc1ccc(C(=O)Nc2n[nH]c3c2CN(C(=O)N[C@@H]2C[C@H]2c2ccccc2)C3(C)C)cc1OC (relative stereo) [Example 109, 3-[(3,4-dimethoxybenzoyl)amino]-6,6-dimethyl-N-[trans-2-phenyl-cyclopropyl]-4,6-dihydropyrrolo[3,4-c]pyrazole-5(1H)-carboxamide] | 176 nM | –

The next lines start with the values.

Ki | inhibition at 1 µM | SMILES
260 nM | – | CCC(C(=O)Nc1n[nH]c2c1CN(C(=O)N[C@@H]1C[C@H]1c1ccccc1)C2(C)C)c1ccccc1 (relative stereo) [Example 107, 6,6-dimethyl-3-[(2-phenylbutanoyl)amino]-N-[trans-2-phenylcyclopropyl]-4,6-dihydropyrrolo[3,4-c]pyrazole-5(1H)-carboxamide]
512 nM | – | CN(C)C[C@H](c1ccccc1)N(C)C(=O)N1Cc2c(NC(=O)c3ccccc3)n[nH]c2C1(C)C [Example 103, 3-(benzoylamino)-N-[(1S)-2-(dimethylamino)-1-phenylethyl]-N,6,6-trimethyl-4,6-dihydropyrrolo[3,4-c]pyrazole-5(1H)-carboxamide]
– | 66% | CN(C)C[C@@H](NC(=O)N1Cc2c(NC(=O)C3COc4ccccc4O3)n[nH]c2C1(C)C)c1ccccc1 (stereo partly drawn) [Example 112, 3-(2,3-dihydrobenzo[b][1,4]dioxine-2-carboxamido)-N-((S)-2-(dimethylamino)-1-phenylethyl)-6,6-dimethylpyrrolo[3,4-c]pyrazole-5(1H,4H,6H)-carboxamide]
308 nM | – | CCC(NC(=O)N1Cc2c(NC(=O)c3ccccc3)n[nH]c2C1(C)C)c1ccccc1 (stereo not shown) [Example 62, 3-(benzoylamino)-6,6-dimethyl-N-(1-phenylpropyl)-4,6-dihydropyrrolo[3,4-c]pyrazole-5(1H)-carboxamide]
444 nM | – | CC1(C)c2[nH]nc(NC(=O)c3ccccc3)c2CN1C(=O)NC1CCCN(Cc2ccccc2)C1 (stereo not shown) [Example 61, 3-(benzoylamino)-N-(1-benzylpiperidin-3-yl)-6,6-dimethyl-4,6-dihydropyrrolo[3,4-c]pyrazole-5(1H)-carboxamide]
786 nM | – | CN(C)[C@@H](COC(=O)N1Cc2c(NC(=O)c3ccc(F)cc3)n[nH]c2C1(C)C)c1ccccc1 [Example 41, (R)-2-(dimethylamino)-2-phenylethyl 3-[(4-fluorobenzoyl)amino]-6,6-dimethyl-4,6-dihydropyrrolo[3,4-c]pyrazole-5(1H)-carboxylate]
463 nM | – | COC[C@@H](NC(=O)N1Cc2c(NC(=O)c3ccccc3)n[nH]c2C1(C)C)c1ccccc1 [Example 120, (S)-3-benzamido-N-(2-methoxy-1-phenylethyl)-6,6-dimethylpyrrolo[3,4-c]pyrazole-5(1H,4H,6H)-carboxamide]
448 nM | – | CC1(C)c2[nH]nc(NC(=O)c3ccccc3)c2CN1C(=O)NC1CCN(Cc2ccccc2)C1 (stereo not shown) [Example 59, 3-(benzoylamino)-N-(1-benzylpyrrolidin-3-yl)-6,6-dimethyl-4,6-dihydropyrrolo[3,4-c]pyrazole-5(1H)-carboxamide]
